These results are taken from patent US20160368872A1, “COMPOUNDS AND METHODS FOR TREATING CANCERS” (HEALTH RESEARCH, INC., priority 2013, published 2016).

Common to all, as to assay: inhibition of growth of cell lines (IC50 categories)
What all share (assay type): cell-based

One experiment has as its system Hela. To be noted: Homo sapiens. The protocol:
(§1) This example provides a table (below) of the compounds of the present disclosure and their activity towards four different cell lines (i.e., CWR22R, Hela, PC3, and MDA-MB-231). The IC50 for inhibition of growth is divided into 4 categories: A<1 μM, B 1-5 μM, […], D>20 μM.
(§2) All compounds were tested for toxicity using 4 cells lines, target cells-CWR22R and non-target cells, Hela, PC3 and MDA-MB-231 (FIGS. 1A-F).

The subject of another experiment is PC3. To be noted: Homo sapiens, PC-3. The protocol: as §1, §2
A further experiment relates to MDA-MB-231. To be noted: Homo sapiens. The protocol:
as §1, §2

The subject of the next experiment is CWR22R. To be noted: Homo sapiens, 22Rv1. The protocol:
as §1, §2

Molecules are shown by their SMILES.

Usually IC50 stands for the concentration at which inhibition is half-maximal. Lower therefore signals greater potency. `O=C1NCc2c1ccc1c2c2ncccc2n1CCCF` [Compound 10-6, 6-(3-fluoropropyl)-1,2-dihydro-6H-2,6,10-triazacyclopenta[c]fluoren-3-one]: the IC50 was more than 20 µM in the experiment with Hela, more than 20 µM in the experiment on PC3, more than 20 µM in the experiment with MDA-MB-231 and less than 1 µM in the experiment on CWR22R.

In the case of `CCCn1c2ccccc2c2c3c(ccc21)C(=O)N(C)C3` [Compound 4-1, 2-Methyl-6-propyl-1,2-dihydro-6H-pyrrolo[3,4-c]carbazol-3-one], the IC50 with Hela was 1 to 5 µM; with PC3, more than 20 µM; in the experiment on MDA-MB-231, less than 1 µM; with CWR22R it was less than 1 µM.

As to `CCCn1c2ccccc2c2c3c(ccc21)C(=O)CCC3` [Compound 1-4], the IC50 in the experiment on Hela is more than 20 µM; in the experiment with PC3 it was more than 20 µM; in the experiment with MDA-MB-231 it was more than 20 µM; in the experiment on CWR22R it was less than 1 µM.

On to `CCCn1c2ccccc2c2c3cc[nH]c(=O)c3ccc21` [Compound 3-1, 7-Propyl-3H,7H-pyrido[3,4-c]carbazol-4-one], for which the IC50 was more than 20 µM in the experiment with Hela, more than 20 µM with PC3, more than 20 µM in the experiment on MDA-MB-231 and less than 1 µM in the experiment on CWR22R.

As to `O=C1CCc2c1ccc1c2c2cc(Br)ccc2n1CCCF` [Compound 1-16], the IC50 with Hela was more than 20 µM; in the experiment with PC3, more than 20 µM; in the experiment with MDA-MB-231, more than 20 µM; in the experiment with CWR22R, 1 to 5 µM.

For `O=c1c2ccc3c(c2ccn1CCO)c1ccccc1n3CCCF` [Compound 4-3], the IC50 in the experiment on Hela is more than 20 µM; in the experiment on PC3, more than 20 µM; with MDA-MB-231 it was more than 20 µM; with CWR22R, 5 to 20 µM.

For `CCCn1c2ccccc2c2c3nc[nH]c(=O)c3ccc21` [Compound 5-1, 7-Propyl-3H-pyrimido[5,4-c]carbazol-4(7H)-one], the values for the 50% inhibitory concentration (IC50) in the experiment with Hela, in the experiment with MDA-MB-231 and in the experiment with CWR22R were more than 20 µM, more than 20 µM and less than 1 µM, respectively.

As for `O=c1c2ccc3c(c2ccn1CCN1CCCC1)c1ccccc1n3CCCF` [Compound 4-4], the IC50 in the experiment with Hela, in the experiment with PC3, in the experiment on MDA-MB-231 and in the experiment on CWR22R was 5 to 20 µM each time.

For `O=c1[nH]ccc2c1ccc1c2c2ccccc2n1CCCF` [Compound 3-2], the concentration for half-maximal inhibition (IC50) in the experiment with Hela is more than 20 µM; with PC3 it was more than 20 µM; in the experiment with MDA-MB-231, more than 20 µM; with CWR22R it was less than 1 µM.

Turning to `CCCn1c2cccnc2c2c3cc[nH]c(=O)c3ccc21` [Compound 12-1, 7-Propyl-3,7-dihydro-3,7,11-triazabenzo[c]fluoren-4-one], the IC50 is more than 20 µM with Hela, more than 20 µM in the experiment with PC3, more than 20 µM in the experiment with MDA-MB-231 and 5 to 20 µM with CWR22R.

Take `Cn1c2ccccc2c2c3c(ccc21)C(=O)CC3` [Compound 1-3]: the 50% inhibitory concentration (IC50) in the experiment with Hela, with PC3, in the experiment on MDA-MB-231 and in the experiment on CWR22R was 5 to 20 µM each time.

On to `Cn1ccc2c(ccc3c2c2ncccc2n3CCCF)c1=O` [Compound 10-10], for which the IC50 was more than 20 µM with Hela, more than 20 µM in the experiment with PC3, more than 20 µM in the experiment on MDA-MB-231 and less than 1 µM in the experiment with CWR22R.

Regarding `CCCn1c2cccnc2c2c3c(ccc21)C(=O)CC3` [Compound 10-1, 6-Propyl-1,2-dihydro-6H-6,10-diazacyclopenta[c]fluoren-3-one], the IC50 is more than 20 µM in the experiment on Hela, 5 to 20 µM in the experiment on PC3, 5 to 20 µM in the experiment on MDA-MB-231 and 1 to 5 µM with CWR22R.

As for `O=C1COc2c1ccc1c2c2ccccc2n1CCCF` [Compound 1-7], the 50% inhibitory concentration (IC50) with Hela is more than 20 µM; in the experiment with PC3, more than 20 µM; in the experiment with MDA-MB-231, more than 20 µM; in the experiment with CWR22R, less than 1 µM.

`O=c1[nH]ccc2c1ccc1c2c2ncccc2n1CCC(F)F` [Compound 15-1, 7-(3,3-Difluoropropyl)-3,7-dihydro-3,7,11-triaza-benzo[c]fluoren-4-one]: the IC50 in the experiment with Hela, in the experiment on PC3, with MDA-MB-231 and in the experiment with CWR22R was more than 20 µM each time.

Consider `CCCn1c2ccccc2c2c3c(ccc21)C(=O)NCC3` [Compound 2-1, 7-Propyl-2,3-dihydro-1H,7H-pyrido[3,4-c]carbazol-4-one], for which the IC50 in the experiment with Hela was more than 20 µM; in the experiment on PC3, more than 20 µM; in the experiment with MDA-MB-231 it was more than 20 µM; with CWR22R, less than 1 µM.

For the compound `CCCn1c2ccccc2c2c3c(ccc21)C(=O)NC3` [Compound 1-10, 6-propyl-1,2-dihydro-6H-pyrrolo[3,4-c]carbazol-3-one], the IC50 with Hela was more than 20 µM; in the experiment on PC3, more than 20 µM; in the experiment with MDA-MB-231, more than 20 µM; with CWR22R it was less than 1 µM.

For the compound `N#Cc1cccc2c1c1c3cc[nH]c(=O)c3ccc1n2CCCF` [Compound 8-3], the IC50 in the experiment with Hela is more than 20 µM; in the experiment on PC3, more than 20 µM; in the experiment with MDA-MB-231, more than 20 µM; in the experiment on CWR22R, 1 to 5 µM.

As to `O=C1COc2c(ccc3c2c2ncccc2n3CCCF)N1` [Compound 13-2], the IC50 is more than 20 µM with Hela, more than 20 µM with PC3, more than 20 µM in the experiment on MDA-MB-231 and 5 to 20 µM in the experiment with CWR22R.

For `O=c1[nH]ccc2c1ccc1c2c2ncccc2n1CCCF` [Compound 13-1, 7-(3-Fluoropropyl)-3,7-dihydro-3,7,11-triaza-benzo[c]fluoren-4-one], the IC50 in the experiment with Hela was more than 20 µM; in the experiment on PC3, more than 20 µM; with MDA-MB-231 it was more than 20 µM; with CWR22R, less than 1 µM.

Regarding `O=C1CCc2c1ccc1c2c2c(F)cccc2n1CCCF` [Compound 1-14], the IC50 is more than 20 µM in the experiment on Hela, more than 20 µM with PC3, more than 20 µM in the experiment with MDA-MB-231 and less than 1 µM in the experiment with CWR22R.

Regarding `CCCn1c2ccccc2c2c3c(ccc21)C(=O)CCO3` [Compound 1-8], the IC50 is more than 20 µM with Hela, more than 20 µM in the experiment with PC3, more than 20 µM in the experiment on MDA-MB-231 and less than 1 µM in the experiment on CWR22R.

For the compound `CCCn1c2ccccc2c2c3c(ccc21)C(O)CC3` (stereo not shown) [Compound 7-1, 6-Propyl-1,2,3,6-tetrahydro-cyclopenta[c]carbazol-3-ol], the IC50 in the experiment with Hela is 5 to 20 µM; in the experiment with PC3, 5 to 20 µM; in the experiment on MDA-MB-231, 5 to 20 µM; in the experiment on CWR22R, less than 1 µM.

As to `O=C1NCc2c1ccc1c2c2ccccc2n1CCCF` [Compound 1-11], the half-maximal inhibitory concentration (IC50) in the experiment on Hela was more than 20 µM; with PC3, more than 20 µM; in the experiment on MDA-MB-231, more than 20 µM; in the experiment on CWR22R, less than 1 µM.

As to `O=C1Cc2ccc3c(c2CN1)c1ccccc1n3CCCF` [Compound 1-12], the IC50 in the experiment with Hela is more than 20 µM; in the experiment with PC3, more than 20 µM; in the experiment with MDA-MB-231, more than 20 µM; in the experiment with CWR22R, less than 1 µM.

Consider `O=C1NCCc2c1ccc1c2c2ccccc2n1CCCF` [Compound 2-2], for which the IC50 with Hela was more than 20 µM; in the experiment with PC3, more than 20 µM; with MDA-MB-231 it was more than 20 µM; in the experiment with CWR22R it was less than 1 µM.

For the compound `CC(=O)c1ccc2c(c1)c1c3c(ccc1n2CCCF)C(=O)CC3` [Compound 1-15], the IC50 was more than 20 µM in the experiment on Hela, more than 20 µM in the experiment with PC3, more than 20 µM with MDA-MB-231 and 1 to 5 µM in the experiment with CWR22R.

Regarding `Cn1ncc2c(ccc3c2c2ncccc2n3CCCF)c1=O` [Compound 10-7], the IC50 was more than 20 µM in the experiment with Hela, more than 20 µM in the experiment with PC3, 5 to 20 µM in the experiment on MDA-MB-231 and less than 1 µM with CWR22R.

Turning to `NC(=O)c1cccc2c1c1c3cc[nH]c(=O)c3ccc1n2CCCF` [Compound 8-4], the IC50 with Hela is more than 20 µM; in the experiment on PC3, more than 20 µM; in the experiment with MDA-MB-231, more than 20 µM; in the experiment on CWR22R, 5 to 20 µM.

Consider `O=c1[nH]ncc2c1ccc1c2c2ccccc2n1CCCF` [Compound 5-3], for which the IC50 in the experiment with Hela was more than 20 µM; in the experiment with PC3 it was more than 20 µM; with MDA-MB-231, more than 20 µM; with CWR22R, less than 1 µM.

Consider `O=c1[nH]c2ccc3c(c4ccccc4n3CCCF)c2o1` [Compound 8-2], for which the IC50 in the experiment on Hela was 5 to 20 µM; in the experiment on PC3, more than 20 µM; in the experiment on MDA-MB-231, 5 to 20 µM; with CWR22R it was less than 1 µM.

As to `CCCn1c2ccccc2c2c3c(ccc21)C(=O)CO3` [Compound 1-6], the IC50 in the experiment on Hela is more than 20 µM; with PC3, more than 20 µM; in the experiment with MDA-MB-231 it was more than 20 µM; in the experiment on CWR22R it was less than 1 µM.

On to `O=C1CCCc2c(ccc3c2c2ccccc2n3CCCF)N1` [Compound 2-4], for which the IC50 in the experiment on Hela was 5 to 20 µM; in the experiment with PC3 it was 5 to 20 µM; in the experiment on MDA-MB-231, more than 20 µM; with CWR22R it was less than 1 µM.

Take `CCCn1c2cccnc2c2c3ccn(C)c(=O)c3ccc21` [Compound 10-9]: the IC50 is more than 20 µM with Hela, more than 20 µM with PC3, more than 20 µM in the experiment on MDA-MB-231 and less than 1 µM with CWR22R.

Turning to `O=C1NCCOc2c1ccc1c2c2ccccc2n1CCCF` [Compound 2-5], the IC50 was more than 20 µM in the experiment with Hela, more than 20 µM in the experiment with PC3, more than 20 µM in the experiment on MDA-MB-231 and less than 1 µM with CWR22R.

As to `CCCn1c2ccccc2c2c3c(ccc21)CCC3` [Compound 7-2, 6-Propyl-1,2,3,6-tetrahydro-cyclopenta[c]carbazole], the IC50 in the experiment on Hela is more than 20 µM; in the experiment with PC3, more than 20 µM; in the experiment on MDA-MB-231 it was more than 20 µM; with CWR22R it was 1 to 5 µM.

As to `O=C1NCCc2c1ccc1c2c2ncccc2n1CCCF` [Compound 11-2], the half-inhibitory concentration (IC50) in the experiment with Hela is more than 20 µM; with PC3, more than 20 µM; in the experiment with MDA-MB-231 it was more than 20 µM; with CWR22R it was less than 1 µM.

`O=c1[nH]cnc2c1ccc1c2c2ccccc2n1CCCF` [Compound 5-2]: the IC50 in the experiment on Hela is more than 20 µM; in the experiment with PC3, more than 20 µM; in the experiment with MDA-MB-231, more than 20 µM; in the experiment with CWR22R it was less than 1 µM.
